The data set relates to CYP706B1. The data set is described as follows: (+)-d-cadinene hydroxylase activity assay, inhibitors and cofactor. The format is biochemical, Gossypium arboreum. As to conditions: for sensitivity to inhibition: qualitative statement, taken as indication of a cytochrome P450. The protocol:
The yeast Saccharomyces cerevisiae strain W(R), which overexpresses the yeast cytochrome P450 reductase when grow on galactose, and the expression vector pYeDP60 were provided by D. Pompon (Pompon et al (1996) Methods Enzymol. 272, 51-64). The cDNA of CYP706B1 was modified by PCR with a 5′-terminal primer 5ç-[…] (sense), in which a Kpn I site was introduced, and a 3′-terminal primer 5ç-[…] (reverse), in which a Sac I site was introduced. PCR was conducted on plasmid DNA by using Pyrobest™ DNA polymerase (TaKaRa). After digestion with the restriction enzymes, the fragment was inserted into pYeDP60. Plasmid DNA was introduced into yeast cells by a LiAc method, transformed yeast cells were then selected, cultured, and induced, and microsomes were prepared following a high density procedure (Pompon et al (1996) Methods Enzymol. 272, 51-64).
The (+)-d-cadinene hydroxylase activity assay was based on a published protocol for monoterpene P450 hydroxylases (Mihaliak et al. (1993) Methods Plant Biochem. 9, 261-279). The radioactive assay was conducted in […] of potassium phosphate buffer (50 mM, pH 7.4) containing 1 mM EDTA (pH 8.0), 0.4 M sucrose, 2 mM DTT, 0.1% BSA, 1 mM NADPH, 5 mM FAD, 5 mM FMN, 4 mM glucose-6-phosphate, 1 unit of glucose-6-phosphate dehydrogenase, […] ^3H-(+)-d-cadinene (32 mCi/mmol) and yeast microsomes (100^˜[…] protein). The reaction was started by adding the microsomes, incubated at 30° C. for 1 hr, and stopped by chilling on ice. The reaction mixture was extracted three times with […] hexane:ethyl acetate (1:1), the extract was filtered through a 0.2 g, 100^˜200 mesh silica gel column in a pasteur pipet, eluted with 1.5 mL hexane:ethyl acetate (1:1), and concentrated to ca […] with an argon stream. The entire sample was subjected to reversed phase HPLC on C18 silica (250×4.6 mm, […] particle diameter) with a gradient of 40:60 to 100:0 acetonitrile/water (v/v) over 60 min followed by 10 min of 100% acetonitrile, flow rate 1 mL/min. Tritium was detected by an on-line liquid scintillation counter (b-RAM, IN/US Systems, Inc., Tampa, Fla.). […]

In the case of `[C-]#[O+]` [CO, carbon monoxide], the sensitivity to inhibition result is on record as “sensitivity to inhibition”. Further, the “inhibition of the hydroxylase activity” value (reaction mixture treated with a slow stream of CO for about 2 min, yeast microsomes containing CYP706B1) was 70%.
Consider `Clc1ccc(COC(Cn2ccnc2)c2ccc(Cl)cc2Cl)c(Cl)c1` (stereo not drawn) [miconazole], for which the sensitivity to inhibition entry is on record as “sensitivity to inhibition”.

The values above are taken from patent publication US20020187538A1, “cDNA clone of (+)- delta-cadinene-8-hydroxylase gene from cotton plants” (priority 2001, published 2002).
